Measured values reported in patent US20260042764A1, “COMPOSITIONS AND METHODS FOR INHIBITION OF KRAS” (TheRas, Inc., priority 2022, published 2026).

Key:
[1] = biological target: T1, Avi-KRAS G12D (1-169) GppNHp/RAF1 RBD-3xFLAG (52-151) (Homo sapiens, UniProt P01116, G12D); assay: Raf1-KRAS G12D-GppNHP disruption HTRF assay (Biological Example 1); format: binding
T1 construct: Avi-KRAS G12D (1-169)
Outline: (§1)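 Compound disruption of KRAS-GppNHp/RAF1 RBD binding read by HTRF after two sequential 1 h room-temperature incubations (protein mix, then detection reagents), shaken at 700 rpm. Buffer Tris pH 7.5 with MgCl2, BSA, Tween and 10% DMSO; results given as percent activity relative to DMSO (100%).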

[2] = biological target: T2, Avi-KRAS G12R (1-169) GppNHp/RAF1 RBD-3xFLAG (52-151) (Homo sapiens, UniProt P01116, G12R); assay: Raf1-KRAS G12R-GppNHP disruption HTRF assay (Biological Example 1); format: binding
T2 construct: Avi-KRAS G12R (1-169)
T2 sequence (P01116 1-169 isoform P01116-2 G12R): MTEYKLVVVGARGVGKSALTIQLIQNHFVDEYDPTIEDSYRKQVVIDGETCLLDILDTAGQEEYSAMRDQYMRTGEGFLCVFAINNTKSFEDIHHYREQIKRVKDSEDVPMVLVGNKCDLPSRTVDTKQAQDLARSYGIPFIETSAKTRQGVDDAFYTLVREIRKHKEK
Outline: as §1

[3] = biological target: T3, Avi-KRAS G12V (1-169) GppNHp/RAF1 RBD-3xFLAG (52-151) (Homo sapiens, UniProt P01116, G12V); assay: Raf1-KRAS G12V-GppNHP disruption HTRF assay (Biological Example 1); format: binding
T3 construct: Avi-KRAS G12V (1-169)
T3 sequence (P01116 1-169 isoform P01116-2 G12V): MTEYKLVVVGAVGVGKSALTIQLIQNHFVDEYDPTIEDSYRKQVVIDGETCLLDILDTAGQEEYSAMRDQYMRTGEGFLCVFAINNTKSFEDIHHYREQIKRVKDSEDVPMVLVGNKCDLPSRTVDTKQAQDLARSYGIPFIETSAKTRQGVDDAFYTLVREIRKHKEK
Outline: as §1

[4] = biological target: T4, Avi-KRAS WT (1-169) GppNHp/RAF1 RBD-3xFLAG (52-151) (Homo sapiens, UniProt P01116); assay: Raf1-KRAS WT-GppNHP disruption HTRF assay (Biological Example 1); format: binding
T4 construct: Avi-KRAS WT (1-169)
T4 sequence (P01116 1-169 isoform P01116-2): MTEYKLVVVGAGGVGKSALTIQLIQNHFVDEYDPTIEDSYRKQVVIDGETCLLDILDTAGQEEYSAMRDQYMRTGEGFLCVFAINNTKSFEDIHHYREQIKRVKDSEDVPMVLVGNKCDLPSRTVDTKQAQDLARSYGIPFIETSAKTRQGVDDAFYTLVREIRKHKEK
Outline: as §1

[5] = tested on: GP2d cells (KRAS G12D); assay: Cell-based pERK HTRF assay in GP2d cell (Biological Example 2); settings: GP2d (KRAS G12D) cells, pERK HTRF
Outline: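 Phospho-ERK in lysed cells was detected by HTRF using Eu cryptate and d2 antibodies, read between 4 and 24 h at room temperature. Prior to lysis, KRAS G12D GP2d cells, seeded the day before in DMEM with 10% FBS, were exposed to compounds for 60 min. Compounds were tested as 9-point half-log curves from 1 μM or 100 nM top, with 0.25% DMSO.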

[6] = tested on: SW620 cells (KRAS G12V); assay: Cell-based pERK HTRF assay in SW620 cell (Biological Example 4); settings: pERK HTRF
Outline: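 SW620 (KRAS G12V) cells seeded at 3×10^4/well in RPMI, 10% FBS, then treated next day for 4 h with a 9-point half-log series from 1 μM top (0.25% DMSO). Lysates analyzed for pERK by HTRF (Eu cryptate/d2 antibodies, 4–24 h at room temperature), excitation 320 nm, emission 615 nm.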

[7] = KRAS G12D, GppNHp-loaded, class symbols
[8] = KRAS G12R, GppNHp-loaded, class symbols
[9] = KRAS G12V, GppNHp-loaded, class symbols
[10] = KRAS WT, GppNHp-loaded, class symbols
[11] = Homo sapiens, SW-620, SW620 (KRAS G12V) cells, class symbols
[12] = KRAS G12D, GppNHp-loaded, Table 11
[13] = KRAS G12R, GppNHp-loaded, Table 11
[14] = KRAS G12V, GppNHp-loaded, Table 11
[15] = KRAS WT, GppNHp-loaded, Table 11
[16] = Homo sapiens, SW-620, SW620 (KRAS G12V) cells

T1 sequence (P01116 1-169 isoform P01116-2 G12D): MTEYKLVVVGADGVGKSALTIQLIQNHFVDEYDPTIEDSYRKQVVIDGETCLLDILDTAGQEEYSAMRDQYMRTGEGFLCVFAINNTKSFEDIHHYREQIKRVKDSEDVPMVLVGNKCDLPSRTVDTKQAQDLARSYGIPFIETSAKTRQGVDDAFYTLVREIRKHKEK

Compound	IC50 [1, 7] [nM]	IC50 [2, 8] [nM]	IC50 [3, 9] [nM]	IC50 [4, 10] [nM]	IC50 ([5]; GP2d, class symbols) [nM]	IC50 [6, 11] [nM]	IC50 ([5]; GP2d) [nM]	IC50 [6, 16] [nM]	other results
CC(C)C(=O)N1CC[C@H](N(C)c2nc(OC[C@@]34CCCN3C[C@H](F)C4)nc3c(F)c(-c4ccc(F)c5sc(N)c(C#N)c45)c(C(F)(F)F)cc23)C1 (atropisomer, axis not shown) [Compound 786]	< 100	< 100	100 to 1000	100 to 1000	< 100	< 100			
CCN(c1nc(OC[C@@]23CCCN2C[C@H](F)C3)nc2c(F)c(-c3ccc(F)c4sc(N)c(C#N)c34)c(C(F)(F)F)cc12)[C@H]1CCN(C(=O)[C@@H]2CCCCO2)C1 (atropisomer, axis not shown) [Compound 769]	< 100	< 100	< 100	< 100	< 100	< 100			
N#Cc1c(N)sc2c(F)ccc(-c3c(C(F)(F)F)cc4c(N5CCn6nc(C(=O)N7CCC(O)C7)cc6C5)nc(OCC56CCCN5CC(F)C6)nc4c3F)c12 (stereo not drawn) [Compound 513]									IC50 ([1]; KRAS G12D-GppNHp/RAF1 RBD HTRF): 100 to 1000 nM; IC50 ([2]; KRAS G12R-GppNHp/RAF1 RBD HTRF): 100 to 1000 nM; IC50 ([3]; KRAS G12V-GppNHp/RAF1 RBD HTRF): 100 to 1000 nM; IC50 ([4]; KRAS WT-GppNHp/RAF1 RBD HTRF): 100 to 1000 nM; IC50 [5]: < 100 nM; IC50 ([6]; SW620 (KRAS G12V) cells): 100 to 1000 nM
CCN(c1nc(OC[C@@]23CCCN2C[C@H](F)C3)nc2c(F)c(-c3ccc(F)c4sc(N)c(C#N)c34)c(C(F)(F)F)cc12)[C@H]1CC(=O)N(CC(F)F)C1 [Compound 549]							< 100	< 100	IC50 ([1]; KRAS G12D-GppNHp/RAF1 RBD HTRF): < 100 nM; IC50 ([2]; KRAS G12R-GppNHp/RAF1 RBD HTRF): 100 to 1000 nM; IC50 ([3]; KRAS G12V-GppNHp/RAF1 RBD HTRF): 100 to 1000 nM; IC50 ([4]; KRAS WT-GppNHp/RAF1 RBD HTRF): 100 to 1000 nM
CC(=O)N(C)[C@H]1CCN(c2nc(OC[C@@]34CCCN3C[C@H](F)C4)nc3c(F)c(-c4ccc(F)c5sc(N)c(C#N)c45)c(C(F)(F)F)cc23)C1 [Compound 206]							100 to 1000	100 to 1000	IC50 [1, 12]: 1000 to 10000 nM; IC50 [2, 13]: 1000 to 10000 nM; IC50 [3, 14]: 1000 to 10000 nM; IC50 [4, 15]: 1000 to 10000 nM

More lines, main results first:

IC50 [1, 7] [nM]	IC50 [2, 8] [nM]	IC50 [3, 9] [nM]	IC50 [4, 10] [nM]	IC50 ([5]; GP2d, class symbols) [nM]	IC50 [6, 11] [nM]	IC50 ([5]; GP2d) [nM]	IC50 [6, 16] [nM]	Compound	other results
< 100	100 to 1000	100 to 1000	100 to 1000	< 100	< 100			CCN(c1nc(OC[C@@]23CCCN2C[C@H](F)C3)nc2c(F)c(-c3ccc(F)c4sc(N)c(C#N)c34)c(C(F)(F)F)cc12)[C@H]1CCN(C(=O)c2cnnn2C)C1 (atropisomer, axis not shown) [Compound 733]	
< 100	< 100	< 100	< 100	< 100	< 100			CCN(c1nc(OC[C@@]23CCCN2C[C@H](F)C3)nc2c(F)c(-c3ccc(F)c4sc(N)c(C#N)c34)c(C(F)(F)F)cc12)[C@H]1CCN(C(=O)N2CC(F)C2)[C@@H]1C (atropisomer, axis not shown) [Compound 780]	
< 100	< 100	< 100	< 100	< 100	< 100			CCN1C[C@@H](N(CC)c2nc(OC[C@@]34CCCN3C[C@H](F)C4)nc3c(F)c(-c4ccc(F)c5sc(N)c(C#N)c45)c(C(F)(F)F)cc23)CC1=O (atropisomer, axis not shown) [Compound 634]	
						< 100	< 100	N#Cc1c(N)sc2c(F)ccc(-c3c(C(F)(F)F)cc4cnc(OC[C@@]56CCCN5C[C@H](F)C6)nc4c3F)c12 [Compound 213, 2-amino-7-fluoro-4-[8-fluoro-2-[[(2R,8S)-2-fluoro-1,2,3,5,6,7-hexahydropyrrolizin-8-yl]methoxy]-6-(trifluoromethyl)quinazolin-7-yl]benzothiophene-3-carbonitrile]	IC50 [1, 12]: 100 to 1000 nM; IC50 [2, 13]: 100 to 1000 nM; IC50 [3, 14]: 100 to 1000 nM; IC50 [4, 15]: 100 to 1000 nM
< 100	< 100	< 100	< 100	< 100	< 100			CCN(c1nc(OC[C@@]23CCCN2C[C@H](F)C3)nc2c(F)c(-c3ccc(F)c4sc(N)c(C#N)c34)c(C(F)(F)F)cc12)[C@H]1CCN(C(=O)c2cocn2)C1 (atropisomer, axis not shown) [Compound 719]	
